Experimental data reported in article PMC5063506, “A Novel Class of Small Molecule Agonists with Preference for Human over Mouse TLR4 Activation” (PLoS ONE, 2016).

System: GP PBMCs
Assay: Cytokine gene expression in guinea pig PBMCs (QuantiGene Plex)
Assay type: cell-based
Conditions: 1 and 0.2 μg/ml, 24 h, ranking among Ugi compounds
Method: Splenocytes were isolated from naïve BALB/c mice by dissociating spleens with a GentleMACS (Miltenyi) instrument, then filtration through […] screens. For other species, blood was obtained through venipuncture or cardiac puncture into heparinized tubes, then diluted 1:1 with PBS or HBSS and layered onto Ficoll-Histopaque (GE Healthcare) for blood from healthy human volunteers and cynomolgus macaques, Lympholyte-Mammal (Cedarlane Labs) for New Zealand white rabbits, Sprague-Dawley rats, Hartley guinea pigs, cotton rats, and ferrets, followed by standard density centrifugation techniques. PBMCs layers were recovered and cultured in RPMI-1640 + human AB serum (Life Technologies) + Pen Strep + L-Glutamine (human cells) or RPMI-1640 + 10% FBS (Hyclone) + Pen/Strep + L-Glutamine + 0.1% Beta-Mercapto-ethanol (Sigma) (mouse, cyno, rat, cotton rat, guinea pig, rabbit, ferret cells). Purchase of peripheral blood from cynomolgus macaques was from Valley Biosystems (West Sacramento, CA) and was performed in accordance with Standard Operating Procedures and with the approval of the Valley Biosystems Institutional Animal Care and Use Committee (IACUC). […]
PBMCs (human, cynomolgus macaque, guinea pig, ferret, rabbit, rat, and cotton rat) or splenocytes (mouse) were seeded onto 96-well flat bottom plates at 5 x 10^5 cells/well and stimulated with TLR4 agonists at 1 and 0.2 μg/ml for 24 h at 37°C. […] For human, cyno, mouse, and rat, cell-free SNs were analyzed via human, NHP, mouse, and rat MILLIPLEX kits. For GP, ferret, rabbit, and CR, cells were lysed by Millipore lysing buffer and snap frozen at -70 C until ready for analysis by Affymetrix QuantiGene 2.0 Plex kits. […] Signal was detected using a Bioplex 200 instrument (BioRad). […]
Fig 7 Activation of cytokine gene expression by Ugi compounds in GP PBMCs. […] SNs were analyzed via GP Affymetrix QuantiGene Plex assay. Data are expressed as the means of 3 GPs at the 1 μg/ml dose of TLR4 agonist and are representative of 2 studies. […]

Compound | activity in GP PBMCs (cytokine mRNA)
CC(C)(C)c1ccc(N(C(=O)c2cc(-c3ccccc3)n(-c3ccccc3)n2)C(C(=O)NC2CCCC2)c2ccc(CC(=O)O)cc2)cc1 (stereo not drawn) [AZ902] | lowest activity
O=C(O)Cc1ccc(C(C(=O)NC2CCCC2)N(C(=O)c2cc(-c3ccccc3)n(-c3ccccc3)n2)c2ccc3c(c2)CCC3)cc1 (stereo not drawn) [AZ617] | highest activity
Cc1cc(C)cc(N(C(=O)c2cc(-c3ccccc3)n(-c3ccccc3)n2)C(C(=O)NC2CCCC2)c2ccc(CC(=O)O)cc2)c1 (stereo not drawn) [AZ618, 2-(4-(2-(cyclopentylamino)-1-(N-(3,5-dimethylphenyl)-1,5-diphenyl-1H-pyrazole-3-carboxamido)-2-oxoethyl)phenyl)acetic acid] | highest activity
